Experimental data taken from US9115101B2 (Genentech, Inc., priority 2012, dated 2015).

The compounds below were run against T1, RORc ligand binding domain (Homo sapiens, UniProt P51449) (assay: In Vitro RORc Ligand Binding Assay (25-[3H]hydroxycholesterol radioligand filtration)). Conditions: In Vitro RORc Ligand Binding Assay; Table 4; read-out: RORc IC50.
T1 construct: host or cells: E. coli
T1 sequence (P51449 269-508 limits assumed): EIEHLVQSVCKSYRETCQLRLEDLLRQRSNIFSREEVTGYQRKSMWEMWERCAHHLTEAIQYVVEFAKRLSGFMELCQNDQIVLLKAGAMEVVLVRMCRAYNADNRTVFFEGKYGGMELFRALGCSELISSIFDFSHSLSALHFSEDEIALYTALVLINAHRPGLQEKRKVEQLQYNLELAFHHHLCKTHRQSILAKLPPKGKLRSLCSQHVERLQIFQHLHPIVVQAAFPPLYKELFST
In the case of `COc1cc(N2CCN(C(C)=O)CC2)ccc1CN1[C@@H](C)CCC(c2ccccc2)S1(=O)=O` (single isomer, unassigned) [Example 160], the IC50 is reported as 0.207 µM. Compound `COc1cc(CN2[C@@H](C)CCC(c3ccccc3)S2(=O)=O)ccc1N1CCN(C(C)=O)CC1` (single isomer, unassigned) [Example 161] has an IC50 of 3.08 µM. In the case of `COc1cc(CN2[C@@H](C)CCC(c3ccccc3)S2(=O)=O)ccc1N1CCN(C(C)=O)CC1` (single isomer, unassigned) [Example 162], the IC50 is reported as 0.812 µM. Compound `CC(=O)N1CCN(c2ccc(CN3[C@@H](C)CCC(c4ccccc4)S3(=O)=O)cc2Cl)CC1` (single isomer, unassigned) [Example 163] has an IC50 of 0.057 µM. Work on `CC(=O)N1CCN(c2ccc(CN3[C@@H](C)CCC(c4ccccc4)S3(=O)=O)cc2Cl)CC1` (single isomer, unassigned) [Example 164] yielded an IC50 of 0.115 µM. Compound `C[C@H]1CCC(c2ccccc2)S(=O)(=O)N1Cc1ccc(NC2CCN(S(C)(=O)=O)CC2)cc1F` (single isomer, unassigned) [Example 166] has an IC50 of 0.025 µM. Work on `C[C@H]1CCC(c2ccccc2)S(=O)(=O)N1Cc1ccc(NC2CCN(S(C)(=O)=O)CC2)cc1F` (single isomer, unassigned) [Example 167] yielded an IC50 of 0.009 µM. With `CC(=O)N1CCN(c2ccc(CN3CC(C)(C)CC(c4ccccc4)S3(=O)=O)c(F)c2)CC1` (single isomer, unassigned) [Example 168, 1-{4-[4-(4,4-Dimethyl-1,1-dioxo-6-phenyl-[1,2]thiazinan-2-ylmethyl)-3-fluoro-phenyl]-piperazin-1-yl}-ethanone] the IC50 was 1 µM. Work on `CC(=O)N1CCN(c2ccc(CN3C[C@H](C)CC(c4ccccc4)S3(=O)=O)c(F)c2)CC1` (single isomer, unassigned) [Example 169] yielded an IC50 of 0.132 µM. With `CC(=O)N1CCN(c2ccc(CN3C[C@H](C)CC(c4ccccc4)S3(=O)=O)c(F)c2)CC1` (single isomer, unassigned) [Example 170] the IC50 was 0.054 µM. `CC(=O)N1CCN(c2ccc(CN3CC(C)(C)CC(c4ccccc4)S3(=O)=O)c(F)c2)CC1` (single isomer, unassigned) [Example 171, 1-{4-[4-(4,4-Dimethyl-1,1-dioxo-6-phenyl-[1,2]thiazinan-2-ylmethyl)-3-fluoro-phenyl]-piperazin-1-yl}-ethanone] was tested, and the IC50 was 0.2 µM. In the case of `CC(=O)N1CCN(c2ccc(CN3[C@@H](C)CCC(c4ccc(C#N)cc4)S3(=O)=O)c(F)c2)CC1` (single isomer, unassigned) [Example 172], the IC50 is reported as 1.02 µM. `CC(=O)N1CCN(c2ccc(CN3[C@@H](C)CCC(c4ccc(C#N)cc4)S3(=O)=O)c(F)c2)CC1` (single isomer, unassigned) [Example 173] showed an IC50 of 2.06 µM. `CC(=O)N1CCN(c2ccc(CN3[C@@H](C)CCC(c4ccc(Cl)cc4)S3(=O)=O)c(F)c2)CC1` (single isomer, unassigned) [Example 174] gave an IC50 of 0.077 µM. For `CC(=O)N1CCN(c2ccc(CN3[C@@H](C)CCC(c4ccc(Cl)cc4)S3(=O)=O)c(F)c2)CC1` (single isomer, unassigned) [Example 175], the IC50 was 0.03 µM. Work on `COc1ccc(C2CC[C@H](C)N(Cc3ccc(N4CCN(C(C)=O)CC4)cc3F)S2(=O)=O)cc1` (single isomer, unassigned) [Example 176] yielded an IC50 of 0.133 µM. With `COc1ccc(C2CC[C@H](C)N(Cc3ccc(N4CCN(C(C)=O)CC4)cc3F)S2(=O)=O)cc1` (single isomer, unassigned) [Example 177] the IC50 was 0.147 µM. For `CC(=O)N1CCN(c2cnc(CN3[C@@H](C)CCC(c4ccccc4)S3(=O)=O)cn2)CC1` (single isomer, unassigned) [Example 178], the IC50 was 1.43 µM. For `CC(=O)N1CCN(c2cnc(CN3[C@@H](C)CCC(c4ccccc4)S3(=O)=O)cn2)CC1` (single isomer, unassigned) [Example 179], the IC50 was 0.942 µM. Work on `C[C@H](O)C(=O)N1C[C@H]2C[C@@H]1CN2c1ccc(CN2[C@@H](C)CCC(c3ccccc3)S2(=O)=O)c(F)c1` (single isomer, unassigned) [Example 182] yielded an IC50 of 0.041 µM. For `C[C@H](O)C(=O)N1C[C@H]2C[C@@H]1CN2c1ccc(CN2[C@@H](C)CCC(c3ccccc3)S2(=O)=O)c(F)c1` (single isomer, unassigned) [Example 183], the IC50 was 0.04 µM. `CC(=O)N1CCN(c2ccc(CN3[C@@H](C)CCC(c4ccc(C)cc4)S3(=O)=O)c(F)c2)CC1` (single isomer, unassigned) [Example 184] showed an IC50 of 0.098 µM. Compound `CC(=O)N1CCN(c2ccc(CN3[C@@H](C)CCC(c4cccc(Cl)c4)S3(=O)=O)c(F)c2)CC1` (single isomer, unassigned) [Example 185] has an IC50 of 0.025 µM. In the case of `COc1cccc(C2CC[C@H](C)N(Cc3ccc(N4CCN(C(C)=O)CC4)cc3F)S2(=O)=O)c1` (single isomer, unassigned) [Example 190], the IC50 is reported as 0.117 µM. `COc1cccc(C2CC[C@H](C)N(Cc3ccc(N4CCN(C(C)=O)CC4)cc3F)S2(=O)=O)c1` (single isomer, unassigned) [Example 191] gave an IC50 of 0.116 µM. `CC(=O)N1CCN(c2ccc(CN3[C@@H](C)CCC(c4cccc(C)c4)S3(=O)=O)c(F)c2)CC1` (single isomer, unassigned) [Example 192] was tested, and the IC50 was 0.006 µM. Compound `CC(=O)N1CCN(c2ccc(CN3[C@@H](C)CCC(c4cccc(C)c4)S3(=O)=O)c(F)c2)CC1` (single isomer, unassigned) [Example 193] has an IC50 of 0.024 µM. For `CC[C@H]1CCC(c2ccccc2)S(=O)(=O)N1Cc1ccc(N2CCN(C(C)=O)CC2)cc1F` (single isomer, unassigned) [Example 194], the IC50 was 0.018 µM. With `CC[C@H]1CCC(c2ccccc2)S(=O)(=O)N1Cc1ccc(N2CCN(C(C)=O)CC2)cc1F` (single isomer, unassigned) [Example 195] the IC50 was 0.073 µM. Compound `CC(=O)N1CCN(c2ccc(CN3CC4(CC4)CC(c4ccccc4)S3(=O)=O)c(F)c2)CC1` (single isomer, unassigned) [Example 196, 1-{4-[4-(6,6-Dioxo-7-phenyl-6-thia-5-aza-spiro[2.5]oct-5-ylmethyl)-3-fluoro-phenyl]-piperazin-1-yl}-ethanone] has an IC50 of 0.192 µM. Compound `CC(=O)N1CCN(c2ccc(CN3C[C@@H](C)CC(c4ccccc4)S3(=O)=O)c(F)c2)CC1` (single isomer, unassigned) [Example 197] has an IC50 of 0.356 µM. In the case of `CC(=O)N1CCN(c2ccc(CN3C[C@@H](C)CC(c4ccccc4)S3(=O)=O)c(F)c2)CC1` (single isomer, unassigned) [Example 198], the IC50 is reported as 0.019 µM. With `CC(=O)N1CCN(c2ccc(CN3CC4(CC4)CC(c4ccccc4)S3(=O)=O)c(F)c2)CC1` (single isomer, unassigned) [Example 199, 1-{4-[4-(6,6-Dioxo-7-phenyl-6-thia-5-aza-spiro[2.5]oct-5-ylmethyl)-3-fluoro-phenyl]-piperazin-1-yl}-ethanone] the IC50 was 0.014 µM. Compound `CC(=O)N1CCN(c2ccc(CN3[C@@H](C)CCC(c4cccc(Cl)c4)S3(=O)=O)c(F)c2)CC1` (single isomer, unassigned) [Example 200] has an IC50 of 0.017 µM. In the case of `CC(=O)N1CCN(c2ccc(CN3[C@@H](C)CCC(c4ccccc4Cl)S3(=O)=O)c(F)c2)CC1` (single isomer, unassigned) [Example 201], the IC50 is reported as 0.183 µM. Compound `CC(=O)N1CCN(c2ccc(CN3[C@@H](C)CCC(c4cccc(C#N)c4)S3(=O)=O)c(F)c2)CC1` (single isomer, unassigned) [Example 202] has an IC50 of 0.738 µM. `CC(=O)N1CCN(c2ccc(CN3[C@@H](C)CCC(c4cccc(C#N)c4)S3(=O)=O)c(F)c2)CC1` (single isomer, unassigned) [Example 203] was tested, and the IC50 was 0.206 µM. Work on `CC(=O)N1CCN(c2ccc(CN3[C@@H](C)CC[C@@H](c4ccccc4Cl)S3(=O)=O)c(F)c2)CC1` (single isomer, unassigned) [Example 204] yielded an IC50 of 0.052 µM. Work on `CC(=O)N1CCN(c2ccc(CN3[C@@H](C)CCC(c4ccccc4C)S3(=O)=O)c(F)c2)CC1` (single isomer, unassigned) [Example 205] yielded an IC50 of 0.307 µM. `CC(=O)N1CCN(c2ccc(CN3[C@@H](C)CCC(c4ccccc4C)S3(=O)=O)c(F)c2)CC1` (single isomer, unassigned) [Example 206] gave an IC50 of 0.014 µM. `CC(=O)N1CCN(c2ccc(CN3[C@@H](C)CCC(c4ccccc4C#N)S3(=O)=O)c(F)c2)CC1` (single isomer, unassigned) [Example 207] showed an IC50 of 1.81 µM. Work on `CC(=O)N1CCN(c2ccc(CN3[C@@H](C)CCC(c4ccccc4C#N)S3(=O)=O)c(F)c2)CC1` (single isomer, unassigned) [Example 208] yielded an IC50 of 0.032 µM. `C[C@H]1CCC(c2ccccc2)S(=O)(=O)N1Cc1ccc(N2CCC(c3ccn[nH]3)CC2)cc1F` (single isomer, unassigned) [Example 211] was tested, and the IC50 was 0.02 µM. In the case of `C[C@H]1CCC(c2ccccc2)S(=O)(=O)N1Cc1ccc(N2CCC(c3ccn[nH]3)CC2)cc1F` (single isomer, unassigned) [Example 212], the IC50 is reported as 0.016 µM. In the case of `C[C@H]1CCC(c2ccccc2)S(=O)(=O)N1Cc1ccc(N2CCC(n3cnnc3)CC2)cc1` (single isomer, unassigned) [Example 213], the IC50 is reported as 0.075 µM. With `C[C@H]1CCC(c2ccccc2)S(=O)(=O)N1Cc1ccc(N2CCC(n3cnnc3)CC2)cc1` (single isomer, unassigned) [Example 214] the IC50 was 0.239 µM. `C[C@H]1CCC(c2ccccc2)S(=O)(=O)N1Cc1ccc(N2CCC(n3ccnn3)CC2)cc1F` (single isomer, unassigned) [Example 218] showed an IC50 of 0.011 µM. In the case of `C[C@H]1CCC(c2ccccc2)S(=O)(=O)N1Cc1ccc(N2CCC(c3ncno3)CC2)cc1F` (single isomer, unassigned) [Example 219], the IC50 is reported as 0.042 µM. `C[C@H]1CCC(c2ccccc2)S(=O)(=O)N1Cc1ccc(N2CCC(c3ncno3)CC2)cc1F` (single isomer, unassigned) [Example 220] showed an IC50 of 0.043 µM. `C[C@H]1CCC(c2ccccc2)S(=O)(=O)N1Cc1ccc(N2CCC(C(N)=O)CC2)cc1F` (single isomer, unassigned) [Example 221] gave an IC50 of 0.085 µM.
